Measurements reported in ChEMBL document CHEMBL5212743, “Selectivity Literature for EUbOPEN Chemogenomics Library wave 3” (2023).
Values belong to the molecule of their own block, whether it stands above or below them.

What was measured:
[1] = molecular target: Tyrosine-protein kinase SYK (Homo sapiens, UniProt P43405); experiment: Selectivity interaction (KinomeScan (DiscoverX)) EUB0000702a SYK; conditions: at 1 µM
[2] = molecular target: Receptor-type tyrosine-protein kinase FLT3 (Homo sapiens) (UniProt P36888); experiment: Selectivity interaction (KinomeScan (DiscoverX)) EUB0000702a FLT3; conditions: at 1 µM
Receptor-type tyrosine-protein kinase FLT3 (Homo sapiens), sequence (P36888 whole entry): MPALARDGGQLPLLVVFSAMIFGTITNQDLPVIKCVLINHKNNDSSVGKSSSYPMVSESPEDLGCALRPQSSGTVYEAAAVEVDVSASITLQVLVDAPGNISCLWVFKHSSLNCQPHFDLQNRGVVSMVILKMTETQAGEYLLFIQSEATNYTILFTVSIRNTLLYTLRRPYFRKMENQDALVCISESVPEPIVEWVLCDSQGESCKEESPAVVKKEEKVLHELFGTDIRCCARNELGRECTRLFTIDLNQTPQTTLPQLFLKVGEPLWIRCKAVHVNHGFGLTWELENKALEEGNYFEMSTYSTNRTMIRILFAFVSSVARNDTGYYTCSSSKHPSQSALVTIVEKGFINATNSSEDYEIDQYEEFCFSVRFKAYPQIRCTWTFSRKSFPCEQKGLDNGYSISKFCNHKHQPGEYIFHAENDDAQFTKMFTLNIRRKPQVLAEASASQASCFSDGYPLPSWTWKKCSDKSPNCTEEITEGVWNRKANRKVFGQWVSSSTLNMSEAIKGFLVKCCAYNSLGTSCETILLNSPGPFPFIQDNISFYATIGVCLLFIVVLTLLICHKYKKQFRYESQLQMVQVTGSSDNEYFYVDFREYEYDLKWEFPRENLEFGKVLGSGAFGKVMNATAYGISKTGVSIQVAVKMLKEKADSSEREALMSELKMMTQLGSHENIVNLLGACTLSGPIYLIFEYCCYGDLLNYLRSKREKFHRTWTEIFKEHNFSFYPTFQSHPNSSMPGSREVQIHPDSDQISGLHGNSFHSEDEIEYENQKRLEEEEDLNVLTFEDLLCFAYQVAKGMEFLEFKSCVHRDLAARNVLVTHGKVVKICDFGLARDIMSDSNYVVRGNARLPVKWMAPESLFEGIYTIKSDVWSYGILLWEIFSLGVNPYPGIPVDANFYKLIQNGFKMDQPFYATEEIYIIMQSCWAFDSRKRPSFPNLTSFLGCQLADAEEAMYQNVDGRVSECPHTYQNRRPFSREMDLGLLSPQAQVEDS

[3] = molecular target: Bone morphogenetic protein receptor type-1B (Homo sapiens) (UniProt O00238); experiment: Selectivity interaction (KinomeScan (DiscoverX)) EUB0000702a BMPR1B; conditions: at 1 µM
[4] = molecular target: eIF-2-alpha kinase GCN2 (Homo sapiens) (UniProt Q9P2K8); experiment: Selectivity interaction (KinomeScan (DiscoverX)) EUB0000702a EIF2AK4; conditions: at 1 µM
eIF-2-alpha kinase GCN2 (Homo sapiens), sequence (Q9P2K8 whole entry): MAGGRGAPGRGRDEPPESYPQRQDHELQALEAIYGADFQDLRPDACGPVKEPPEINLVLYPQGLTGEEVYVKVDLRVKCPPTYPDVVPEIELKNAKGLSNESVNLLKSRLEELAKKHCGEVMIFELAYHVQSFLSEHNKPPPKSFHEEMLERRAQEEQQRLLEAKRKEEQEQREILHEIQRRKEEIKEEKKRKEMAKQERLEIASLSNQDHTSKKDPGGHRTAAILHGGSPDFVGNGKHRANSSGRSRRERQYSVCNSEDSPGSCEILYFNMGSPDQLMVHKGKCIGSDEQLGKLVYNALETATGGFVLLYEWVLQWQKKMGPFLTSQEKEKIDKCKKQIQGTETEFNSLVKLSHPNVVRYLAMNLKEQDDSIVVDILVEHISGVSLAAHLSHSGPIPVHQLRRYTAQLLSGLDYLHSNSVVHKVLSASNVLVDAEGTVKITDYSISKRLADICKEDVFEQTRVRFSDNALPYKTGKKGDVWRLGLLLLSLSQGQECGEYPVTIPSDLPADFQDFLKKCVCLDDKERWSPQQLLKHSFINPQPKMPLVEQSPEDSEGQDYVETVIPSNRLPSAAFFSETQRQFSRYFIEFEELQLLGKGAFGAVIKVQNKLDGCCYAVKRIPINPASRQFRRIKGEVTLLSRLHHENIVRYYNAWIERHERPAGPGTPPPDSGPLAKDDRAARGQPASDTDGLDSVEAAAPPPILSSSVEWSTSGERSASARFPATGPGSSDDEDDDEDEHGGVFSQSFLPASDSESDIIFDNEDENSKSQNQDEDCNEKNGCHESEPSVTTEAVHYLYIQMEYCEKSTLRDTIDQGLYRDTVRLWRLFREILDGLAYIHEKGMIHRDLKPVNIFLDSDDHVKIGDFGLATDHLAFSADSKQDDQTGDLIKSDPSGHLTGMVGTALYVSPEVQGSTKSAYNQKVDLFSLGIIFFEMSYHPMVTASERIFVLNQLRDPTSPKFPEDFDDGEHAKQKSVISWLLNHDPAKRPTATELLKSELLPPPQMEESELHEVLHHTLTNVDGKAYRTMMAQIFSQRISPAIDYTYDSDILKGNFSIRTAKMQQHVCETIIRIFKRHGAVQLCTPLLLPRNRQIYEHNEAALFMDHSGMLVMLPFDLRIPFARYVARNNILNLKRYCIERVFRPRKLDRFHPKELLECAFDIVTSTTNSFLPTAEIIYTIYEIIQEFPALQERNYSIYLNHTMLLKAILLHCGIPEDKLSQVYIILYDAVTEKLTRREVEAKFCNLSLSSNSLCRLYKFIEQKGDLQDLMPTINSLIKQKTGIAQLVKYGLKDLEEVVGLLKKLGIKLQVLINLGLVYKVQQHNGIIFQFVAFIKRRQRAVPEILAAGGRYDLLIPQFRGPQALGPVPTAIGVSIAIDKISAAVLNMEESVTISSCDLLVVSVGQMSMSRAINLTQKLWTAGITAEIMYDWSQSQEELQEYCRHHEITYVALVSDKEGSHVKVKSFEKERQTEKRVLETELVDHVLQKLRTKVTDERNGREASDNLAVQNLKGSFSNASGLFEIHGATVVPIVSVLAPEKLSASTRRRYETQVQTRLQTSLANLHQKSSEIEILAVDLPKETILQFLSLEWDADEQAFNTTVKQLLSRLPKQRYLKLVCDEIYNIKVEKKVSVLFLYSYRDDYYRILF

[5] = molecular target: High affinity nerve growth factor receptor (Homo sapiens, UniProt P04629); experiment: Selectivity interaction (KinomeScan (DiscoverX)) EUB0000702a NTRK1; conditions: at 1 µM
High affinity nerve growth factor receptor, sequence (P04629 33-796 limits assumed): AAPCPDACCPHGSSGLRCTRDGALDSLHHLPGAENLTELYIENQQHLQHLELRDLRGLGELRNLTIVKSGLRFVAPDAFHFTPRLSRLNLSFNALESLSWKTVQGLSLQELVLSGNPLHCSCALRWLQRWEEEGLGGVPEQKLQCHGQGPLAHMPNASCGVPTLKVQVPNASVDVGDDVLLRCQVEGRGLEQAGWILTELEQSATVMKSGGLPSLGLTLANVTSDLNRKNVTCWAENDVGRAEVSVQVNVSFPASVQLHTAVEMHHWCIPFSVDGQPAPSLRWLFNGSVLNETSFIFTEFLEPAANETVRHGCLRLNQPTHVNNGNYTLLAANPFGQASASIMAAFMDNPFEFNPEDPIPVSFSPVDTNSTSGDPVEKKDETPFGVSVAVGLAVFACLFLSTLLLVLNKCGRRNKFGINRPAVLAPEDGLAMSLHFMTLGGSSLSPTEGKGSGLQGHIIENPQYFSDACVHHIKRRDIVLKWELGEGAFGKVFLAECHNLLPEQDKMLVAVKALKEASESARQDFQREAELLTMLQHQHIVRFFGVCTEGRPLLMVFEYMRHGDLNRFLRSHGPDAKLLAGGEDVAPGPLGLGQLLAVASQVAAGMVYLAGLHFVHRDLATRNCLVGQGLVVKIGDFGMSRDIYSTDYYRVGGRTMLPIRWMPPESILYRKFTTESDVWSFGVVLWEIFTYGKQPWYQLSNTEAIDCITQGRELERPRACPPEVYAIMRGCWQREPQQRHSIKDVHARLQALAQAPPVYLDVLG

[6] = molecular target: Serine/threonine-protein kinase PLK2 (Homo sapiens) (UniProt Q9NYY3); experiment: Selectivity interaction (KinomeScan (DiscoverX)) EUB0000702a PLK2; conditions: at 1 µM
[7] = tested on: Hepatocyte growth factor receptor (Homo sapiens), P08581 [M1250T]; experiment: (§1) Selectivity interaction (KinomeScan (DiscoverX)) EUB0000702a MET; conditions: at 1 µM
[8] = tested on: Hepatocyte growth factor receptor (Homo sapiens), P08581 [Y1235D]; experiment: as §1; conditions: at 1 µM
[9] = molecular target: NUAK family SNF1-like kinase 2 (Homo sapiens) (UniProt Q9H093); experiment: Selectivity interaction (KinomeScan (DiscoverX)) EUB0000702a NUAK2; conditions: at 1 µM
[10] = molecular target: Mitogen-activated protein kinase kinase kinase 19 (Homo sapiens, UniProt Q56UN5); experiment: Selectivity interaction (KinomeScan (DiscoverX, competition-binding assay)) EUB0000305b MAP3K19
Mitogen-activated protein kinase kinase kinase 19, sequence (Q56UN5 whole entry): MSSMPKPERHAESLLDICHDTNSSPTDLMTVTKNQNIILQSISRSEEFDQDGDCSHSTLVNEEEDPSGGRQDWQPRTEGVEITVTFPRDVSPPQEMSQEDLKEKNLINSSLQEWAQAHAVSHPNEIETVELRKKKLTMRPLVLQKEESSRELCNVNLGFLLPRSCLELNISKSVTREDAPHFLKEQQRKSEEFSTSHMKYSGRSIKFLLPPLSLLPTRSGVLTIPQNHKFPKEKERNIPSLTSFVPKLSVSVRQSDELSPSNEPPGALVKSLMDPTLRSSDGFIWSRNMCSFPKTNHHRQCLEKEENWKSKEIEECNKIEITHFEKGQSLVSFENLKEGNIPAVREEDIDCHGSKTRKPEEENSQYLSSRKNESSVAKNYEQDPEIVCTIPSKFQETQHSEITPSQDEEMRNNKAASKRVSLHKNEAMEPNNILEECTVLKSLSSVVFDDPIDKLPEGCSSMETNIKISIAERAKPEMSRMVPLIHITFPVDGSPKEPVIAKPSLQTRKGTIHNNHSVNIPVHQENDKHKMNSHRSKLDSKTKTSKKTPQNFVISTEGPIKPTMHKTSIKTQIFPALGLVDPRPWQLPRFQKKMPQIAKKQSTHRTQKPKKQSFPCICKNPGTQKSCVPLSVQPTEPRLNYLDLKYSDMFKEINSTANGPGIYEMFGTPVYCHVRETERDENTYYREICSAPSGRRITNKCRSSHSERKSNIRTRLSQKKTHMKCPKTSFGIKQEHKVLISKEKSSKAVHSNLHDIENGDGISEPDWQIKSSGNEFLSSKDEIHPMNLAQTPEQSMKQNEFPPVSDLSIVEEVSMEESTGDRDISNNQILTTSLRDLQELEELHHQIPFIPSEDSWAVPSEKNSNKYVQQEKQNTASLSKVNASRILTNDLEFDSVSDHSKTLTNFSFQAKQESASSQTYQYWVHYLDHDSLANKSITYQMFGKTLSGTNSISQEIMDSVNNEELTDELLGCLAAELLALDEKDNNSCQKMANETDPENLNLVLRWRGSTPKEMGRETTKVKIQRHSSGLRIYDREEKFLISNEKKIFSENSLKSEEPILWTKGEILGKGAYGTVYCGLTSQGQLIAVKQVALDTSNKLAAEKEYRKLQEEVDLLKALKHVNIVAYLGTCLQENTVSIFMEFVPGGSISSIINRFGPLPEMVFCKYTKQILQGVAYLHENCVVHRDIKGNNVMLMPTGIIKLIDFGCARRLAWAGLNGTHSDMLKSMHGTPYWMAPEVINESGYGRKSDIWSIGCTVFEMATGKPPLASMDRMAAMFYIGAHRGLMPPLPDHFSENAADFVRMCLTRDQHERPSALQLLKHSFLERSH

[11] = molecular target: Receptor-type tyrosine-protein kinase FLT3 (Homo sapiens, UniProt P36888); experiment: Selectivity interaction (NanoBRET assay (HEK293T cells)) EUB0000305b FLT3
Receptor-type tyrosine-protein kinase FLT3, sequence (P36888 whole entry): as the sequence (P36888 whole entry) above

[12] = molecular target: Serine/threonine-protein kinase 17A (Homo sapiens) (UniProt Q9UEE5); experiment: Selectivity interaction (KinomeScan (DiscoverX)) EUB0000305b STK17A; conditions: at 100 nM
[13] = molecular target: Tyrosine-protein kinase Fer (Homo sapiens, UniProt P16591); conditions: at 1 µM
[14] = molecular target: Proto-oncogene tyrosine-protein kinase Src (Homo sapiens, UniProt P12931); conditions: at 1 µM
[15] = molecular target: NT-3 growth factor receptor (Homo sapiens, UniProt Q16288); conditions: at 1 µM
[16] = molecular target: Ribosomal protein S6 kinase alpha-5 (Homo sapiens) (UniProt O75582); experiment: Selectivity interaction (Kinase panel (University of Dundee)) EUB0000169b RPS6KA5; conditions: at 10 µM
[17] = molecular target: Cyclin-dependent kinase 2 (Homo sapiens, UniProt P24941); experiment: Selectivity interaction (Kinase panel (University of Dundee)) EUB0000169b CDK2; conditions: at 10 µM
[18] = molecular target: Ribosomal protein S6 kinase alpha-1 (Homo sapiens) (UniProt Q15418); conditions: at 10 µM
[19] = molecular target: Mitogen-activated protein kinase 1 (Homo sapiens, UniProt P28482); experiment: Selectivity interaction (Kinase panel (University of Dundee)) EUB0000169b MAPK1; conditions: at 10 µM
[20] = molecular target: T1, Cyclin-G-associated kinase (Homo sapiens) (UniProt O14976); experiment: Selectivity interaction (KinomeScan (DiscoverX)) EUB0000698a GAK; conditions: at 10 µM
T1 sequence (whole entry): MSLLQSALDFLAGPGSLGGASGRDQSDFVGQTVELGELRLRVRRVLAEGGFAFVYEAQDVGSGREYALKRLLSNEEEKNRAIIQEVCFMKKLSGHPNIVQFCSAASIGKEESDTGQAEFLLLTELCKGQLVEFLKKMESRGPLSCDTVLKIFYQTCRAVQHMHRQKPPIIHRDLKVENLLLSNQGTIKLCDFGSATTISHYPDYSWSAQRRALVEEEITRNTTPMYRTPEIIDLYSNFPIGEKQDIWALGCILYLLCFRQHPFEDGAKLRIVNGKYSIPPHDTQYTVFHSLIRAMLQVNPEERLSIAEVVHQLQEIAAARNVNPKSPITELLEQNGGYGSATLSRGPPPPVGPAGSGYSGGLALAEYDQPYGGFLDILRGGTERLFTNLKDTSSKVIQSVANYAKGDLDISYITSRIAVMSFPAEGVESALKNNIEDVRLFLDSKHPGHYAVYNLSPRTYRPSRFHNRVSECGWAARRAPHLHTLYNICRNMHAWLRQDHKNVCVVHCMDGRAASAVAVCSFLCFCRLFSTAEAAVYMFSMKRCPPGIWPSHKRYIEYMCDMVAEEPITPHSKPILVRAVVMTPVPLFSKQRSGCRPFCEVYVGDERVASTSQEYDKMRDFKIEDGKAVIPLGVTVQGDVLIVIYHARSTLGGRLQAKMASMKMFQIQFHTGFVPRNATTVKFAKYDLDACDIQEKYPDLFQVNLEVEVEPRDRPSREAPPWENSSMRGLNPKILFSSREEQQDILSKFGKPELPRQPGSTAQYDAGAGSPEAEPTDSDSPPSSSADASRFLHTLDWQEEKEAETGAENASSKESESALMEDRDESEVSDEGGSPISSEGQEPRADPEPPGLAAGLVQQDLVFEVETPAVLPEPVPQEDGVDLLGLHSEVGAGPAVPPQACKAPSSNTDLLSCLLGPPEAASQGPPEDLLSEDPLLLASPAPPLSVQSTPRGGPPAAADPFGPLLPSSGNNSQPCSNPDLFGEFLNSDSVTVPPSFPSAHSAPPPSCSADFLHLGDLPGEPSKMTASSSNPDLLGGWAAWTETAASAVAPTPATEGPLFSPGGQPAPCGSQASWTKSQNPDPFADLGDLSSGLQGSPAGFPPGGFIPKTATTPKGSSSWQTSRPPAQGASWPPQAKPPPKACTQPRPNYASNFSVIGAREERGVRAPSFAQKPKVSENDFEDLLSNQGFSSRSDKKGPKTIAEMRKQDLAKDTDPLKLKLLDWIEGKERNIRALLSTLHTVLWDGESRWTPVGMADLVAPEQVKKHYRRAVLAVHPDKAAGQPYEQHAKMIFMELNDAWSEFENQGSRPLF

[21] = molecular target: Serine/threonine-protein kinase TAO1 (Homo sapiens) (UniProt Q7L7X3); experiment: Selectivity interaction (KinomeScan (DiscoverX)) EUB0000178b TAOK1; conditions: at 1 µM
[22] = molecular target: Serine/threonine-protein kinase 26 (Homo sapiens) (UniProt Q9P289); experiment: Selectivity interaction (KinomeScan (DiscoverX)) EUB0000178b STK26; conditions: at 1 µM
Aurora kinase B = Aurora kinase B (Homo sapiens, UniProt Q96GD4); experiment: Selectivity interaction (KinomeScan (DiscoverX)) EUB0000178b AURKB; conditions: at 1 µM
Aurora kinase B, sequence (Q96GD4 whole entry): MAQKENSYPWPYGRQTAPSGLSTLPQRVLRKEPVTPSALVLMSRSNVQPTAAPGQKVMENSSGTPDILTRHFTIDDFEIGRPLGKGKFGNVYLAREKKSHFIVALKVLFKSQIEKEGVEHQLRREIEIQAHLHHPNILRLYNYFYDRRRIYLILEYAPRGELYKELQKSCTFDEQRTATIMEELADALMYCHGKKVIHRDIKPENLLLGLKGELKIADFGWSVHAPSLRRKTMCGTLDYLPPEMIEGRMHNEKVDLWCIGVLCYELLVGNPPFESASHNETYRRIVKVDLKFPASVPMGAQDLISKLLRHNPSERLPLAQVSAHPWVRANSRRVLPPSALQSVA

[23] = molecular target: Aurora kinase A (Homo sapiens) (UniProt O14965); experiment: Selectivity interaction (KinomeScan (DiscoverX)) EUB0000178b STK6; conditions: at 1 µM

SMILES: CCOc1cn(-c2ccc(F)cc2C)nc1C(=O)Nc1ccc(Oc2ccnc3cc(OC)c(OC)cc23)c(F)c1
% of control [13]: < 10%
% of control [14]: < 10%
% of control [15]: < 10%

SMILES: CC[C@@H]1C(=O)N(C)c2cnc(Nc3ccc(C(=O)NC4CCN(C)CC4)cc3OC)nc2N1C1CCCC1
% of control [16]: 89%
% of control [17]: 20%
% of control [18]: 13.8%
% of control [19]: 93%

SMILES: CN1C(=O)c2sccc2N(C)c2nc(Nc3ccc(S(N)(=O)=O)cc3)ncc21
% of control [21]: 2.6%
% of control [22]: 0.6%
% of control (Aurora kinase B): 3.4%
% of control [23]: 0.05%

Second part, the molecule after the results:

% of control [1]: 5.7%
% of control [2]: 5.5%
% of control [3]: 3.6%
% of control [4]: 6.7%
% of control [5]: 10%
% of control [6]: 0.5%
% of control [7]: 6.8%
% of control [8]: 10%
% of control [9]: 7.6%
SMILES: CN(c1ccnc(CNc2nc(Nc3ccc4c(c3)CC(=O)N4)ncc2C(F)(F)F)n1)S(C)(=O)=O [PF-00911705]

Kd [10]: 9.6 nM
IC50 [11]: > 20000 nM
% of control [12]: 40%
SMILES: C[C@H](c1ccnc(Nc2nc3ccc(-c4cc(N(C)C)ncn4)cc3[nH]2)c1)N1CCN(C(=O)CC(F)(F)F)CC1 [BAY-985]

% of control [20]: 4.1%
SMILES: COc1cc2ncn(-c3cc(OCc4ccccc4C(F)(F)F)c(C(N)=O)s3)c2cc1OC [GW843682X]
